The values that follow come from patent US20020006955A1, “Ginkgolides for inhibition of membrane expression of benzodiazepine receptors” (priority 1995, published 2002).

The test system of test [1] is testosterone. Description: Serum testosterone by radioimmunoassay in treated rats. Conditions: 2 mg/kg intraperitoneally once daily for eight days; for TESTOSTERONE: serum, control 4.50. It is filed as in vivo, Sprague-Dawley rats. The procedure:
(§1) In each experiment, at least six rats per treatment group were used. After eight days of treatment, the rats were sacrificed.
(§2) The level of steroids in the rats was measured by radioimmunoassay from organic extracts of the collected serum. The levels of corticosterone (a glucocorticoid in rats) and testosterone were measured by radioimmunoassay using antibodies from Endocrine Sciences (Tarlana, Calif., USA) under conditions described by the supplier. The level of plasma ACTH was measured by radioimmunoassay using the method of Crousos, et al., New Engl. J. Med. 310:622 (1984). The level of aldosterone was measured by radioimmunoassay using a kit from Diagnostics Products Corp. (Los Angeles, Calif., USA).

Test [2] relates to corticosterone (a glucocorticoid in rats). The test is described as follows: Assay for determining the inhibition of glucocorticoids: serum corticosterone by radioimmunoassay. It counts as in vivo, Sprague-Dawley rats. Conditions: 2 mg/kg intraperitoneally once daily for eight days; for CORTICOSTERONE: serum, control 161. The method, then:
as §1, §2

The subject of test [3] is plasma ACTH. The test is described as follows: Plasma ACTH by radioimmunoassay in treated rats. It is filed as in vivo, Sprague-Dawley rats. Particulars: 2 mg/kg intraperitoneally once daily for eight days; for ACTH: plasma, control 28.0. The procedure: as §1, §2
Test [4] has as its target 18 Kd peripheral benzodiazepine receptor protein. The test is described as follows: Benzodiazepine radioligand binding assay ([3H]PK 11195) in adrenal mitochondria. Further details: species or system rat. The method, then: See, Garnier, et al., Endocrinology 132:444 (1993). Mitochondria were prepared as described in Krueger, et al., J. Biol. Chem. 265:15015 (1990). Mitochondria ([…] of protein) were resuspended in phosphate buffered saline (PBS) and [^3H]PK 11195 (New England Nuclear, Wilmington, Del., USA). Binding studies were performed at 4° C. in a final incubation volume of 0.3 ml, using radioligand in the concentration range of 0.019-20.00 nM and 200 fold excess of unlabeled PK 11195 (Research Biochemicals, Natick, Mass., USA), as described in Garnier, et al., Endocrinology 132:444 (1993) and Garnier, et al., Mol. Pharm. 45:201 (1994). After 120 min. incubation time, the assay was stopped by filtration through Whatman GF/C filters and washed with 15 ml ice-cold PBS. Radioactivity trapped on the filters were determined by liquid scintillation counting at 50% counting efficiency. The dissociation constant (Kd) and the number of binding sites (Bmax) were determined by […] analysis of the data using the ligand™ program (Kell, V.4.0, Biosoft, Inc.). See Munson, et al., Anal. Biochem. 107:220 (1980).

The test system of test [5] is aldosterone. Description: Serum aldosterone by radioimmunoassay in treated rats. It counts as in vivo, Sprague-Dawley rats. Conditions: 2 mg/kg intraperitoneally once daily for eight days; for ALDOS-STERONE: serum, control 685. The procedure: as §1, §2
In test [6] the test system is peripheral benzodiazepine receptor mRNA. Description: mRNA expression of benzodiazepine receptor in adrenal tissue (RNA blot, PBR cDNA probe). Conditions: adrenal tissue total RNA, densiometric analysis. Further details: species or system rat. The procedure: mRNA Expression of Benzodiazepine Receptor The ginkgolide induced decrease in mRNA expression of the benzodiazepine receptor was also confirmed. Total cellular RNA from adrenal tissue was isolated by the acid guanidinium thiocyanate-phenol-chloroform extraction method (Chomczynski, et al., Anal. Biochem. 162:156-159 (1987)) using the RNAzol B reagent (Tel-Test Inc., Friendswood, Texas, USA). RNA electrophoresis transfer, probe labelling, and membrane hybridization were performed as previously described in Dym, et al., Endocrinology 128:1167-1176 (1991). RNA was size-fractionated by electrophoresis and transferred to derivatized nylon membranes (Nytran Plus, Schleicher & Schuell, Keene, New Hampshire, USA). The blots were then hybridized against the [^32p] cDNA probe for PBR labelled by the random priming technique. The 781 base-pair probe for PBR mRNA used was prepared as previously described in Garnier, et al., Endocrinology 132:444-458 (1993). Screen enhanced autoradiography was performed by exposing Kodak X-OMAT AR films to the blots at −80° C for 48 hours. Densiometric analysis of the spots was performed as described above.

Molecules are shown by their SMILES. pKd: −log10 of the molar value.

Consider `C[C@@H]1C(=O)O[C@H]2C[C@@]34[C@H]5C[C@@H](C(C)(C)C)[C@]36[C@@H](OC(=O)[C@@H]6O)O[C@@]4(C(=O)O5)[C@]21O` [Ginkgolide A, ginkgolide A], for which, in test [1], the “effect on serum levels of testosterone” value is recorded as “unaffected” and the TESTOSTERONE was 4.75 ng/mL. In addition, in test [2], the “effect on the level of corticosterone in the rats” value is reported as “decrease” and the CORTICOSTERONE was determined as 66 ng/mL. In test [3], the “effect on ACTH release” value was “increase ACTH release” and the ACTH was determined as 103 pg/mL. Moreover, the negative logarithm of the Kd (pKd) (usually the Kd on a negative log10 scale, so that one unit is a factor of ten) in test [4] (dissociation constant of radioligand [3H]PK 11195 in adrenal mitochondria after treatment with the substance, 4° C., 120 min, control 1.7) is 8.89. Moreover, the “decrease of expression of the 18 Kd peripheral benzodiazepine receptor protein” value in test [4] (from Bmax versus control, adrenal mitochondria) was 50%. In test [4] (number of [3H]PK 11195 binding sites in adrenal mitochondria after treatment with the substance, control 11.2), this molecule gave a Bmax of 5.6 pmol/mg. For the same molecule, in test [5], the “effect on serum levels of aldosterone” value is “unaffected” and the ALDOS-STERONE was 638 pg/mL.
As for `CC1C(=O)OC2C(O)C34C5CC(C(C)(C)C)C36C(OC(=O)C6O)OC4(C(=O)O5)C12O` (centres unmarked) [Ginkgolide B, ginkgolide B], in test [1], the “effect on serum levels of testosterone” value is “unaffected” and the TESTOSTERONE was 4.50 ng/mL. Moreover, in test [2], the “effect on the level of corticosterone in the rats” value is on record as “decrease” and the CORTICOSTERONE amounted to 75 ng/mL. Besides, in test [3], the “effect on ACTH release” value was “increase ACTH release” and the ACTH was found to be 71.4 pg/mL. In addition, the “reduction of peripheral benzodiazepine receptor mRNA expression” value in test [6] is 85%. Further, in test [5], the “effect on serum levels of aldosterone” value is on record as “unaffected” and the ALDOS-STERONE was found to be 893 pg/mL.
